Experimental data published in US20240109915A1, “NOVEL ACC INHIBITORS” (Pfizer Inc., priority 2022, published 2024).

Columns and labels:
[1] = molecular target: recombinant human ACC1 (rhACC1) (Homo sapiens (Human), UniProt Q13085); experiment: Transcreener ADP detection FP assay, direct inhibition of rhACC1; assay type: biochemical; conditions: Geomean IC50, n ≥ 2 unless * then n = 1; 50 μM ATP, 30 μM acetyl-CoA
SZ95 sebocytes = experiment: Radiometric measurement of de novo lipogenesis in cultured human sebocytes; assay type: cell-based; conditions: Geomean IC50, n>2 unless * then n=1, 14C acetate incorporation into lipids (DNL)
Protocol: SZ95 sebocytes were grown in Human Sebocyte Growth Medium (HSGM) containing Sebomed® basal medium (Sigma-Aldrich, F8205) supplemented with 10% heat-inactivated fetal bovine serum (Gibco, 10100-147), 1% penicillin/streptomycin (Gibco, 15070-063), 1 mM calcium chloride (Fisher, BP9742-10X5) and 5 ng/mL recombinant human epidermal growth factor (Gibco, PHG0311). At 90% confluence, cells were washed with PBS and then detached with 0.05% Trypsin-EDTA (Gibco, 25300054). Prior to starting the assay, cells were centrifuged and resuspended in HSGM containing 5% charcoal-stripped serum (Life Technologies, 12676-029) instead of 10% heat-inactivated fetal bovine serum. Cells were added to 24-well plates at a density of 0.25×10^6 cells/well and incubated overnight at 37° C. to allow the cells to adhere to the culture plate. Cells were then treated with a dose response of compound (30, 1, 0.03, 0.006, 0.0009, 0.0002, and 0.00003 μM) with each concentration tested in duplicate. Briefly, compounds were dissolved in DMSO stocks and diluted 1:1000 into HSGM with charcoal-stripped media. The vehicle control wells were treated with 0.1% DMSO. After a 1-hour preincubation with compound or vehicle at 37° C., 0.25 μCi ^14C sodium acetate (American Radiolabeled Chemicals: ARC, 0173A) was added to each well. Plates were incubated for an additional two hours at 37° C. At the end of the incubation period, cells were removed from incubator, placed on ice, and then washed twice with ice-cold PBS to remove free ^14C-sodium acetate. Plates were sealed and stored at −20° C. until analysis. To induce lysis, 125 μL of mammalian protein extraction reagent (MPER; Fisher, 78501) was added to each well. Plates were shaken for 1 hour at room temperature and lysates transferred to individual 2 mL polypropylene tubes. Wells were then washed with 175 μL PBS, which was added to lysates. A chloroform:methanol solution (1:1 v/v, 450 μL) was added to each tube. All tubes were vortexed for 10 seconds and centrifuged at 14,000×g for 5 minutes at room temperature to separate the aqueous and organic phases. A 25 μL aliquot was removed from the bottom organic layer of each sample and added to 6 mL Optiphase Supermix scintillation fluid (PerkinElmer, 1200-439). Counts of ^14C were assessed by scintillation counting. DNL (counts of ^14C incorporated into lipids) was expressed as a percentage for compound treated cells relative to the vehicle control. IC50 values were determined using a non-linear regression (four parameter with variable slope) in GraphPad Prism.

[2] = Metabolite profile in liver microsomes, hepatocytes, recombinant human P450 and UGT enzymes, and animal plasma; assay type: in vitro ADME, mouse, rat, rabbit, dog, monkey; conditions: recombinant human cytochrome P450 and UGT enzymes, plasma from animals
Protocol: The metabolite profile of compound of Example 14 was evaluated in liver microsomes and hepatocytes (mouse, rat, rabbit, dog, monkey, and human), recombinant human cytochrome P450 enzymes, recombinant human UGT enzymes, and plasma from animals (mouse, rat, and dog).

Row | IC50 [1] | IC50 (SZ95 sebocytes) | metabolite profile [2] | SMILES
1 | 2.2 nM | 5.9 nM | oxidation and glucuronidation | CCOc1cc(C(=O)N2CCC3(CC2)CC(=O)c2nc(C(C)(C)C)sc2C3)cc2c(C)nn(C)c12 [Example 14, 2-(tert-butyl)-1′-(7-ethoxy-1,3-dimethyl-1H-indazole-5-carbonyl)-5H-spiro[benzo[d]thiazole-6,4′-piperidin]-4(7H)-one]
2 | 5.3 nM | 13.5 nM |  | COc1cc(C(=O)N2CCC3(CC2)CC(=O)c2nc(C(C)(C)C)sc2C3)cc2c(C)nn(C)c12 [Example 13, 2-(tert-butyl)-1′-(7-methoxy-1,3-dimethyl-1H-indazole-5-carbonyl)-5H-spiro[benzo[d]thiazole-6,4′-piperidin]-4(7H)-one]
3 | 3.9 nM | 10 nM |  | COc1cc(C(=O)N2CCC3(CC2)CC(=O)c2nc(C(C)(C)C)sc2C3)cc2c(C3CC3)nccc12 [Example 99]
4 | 9.9 nM | 21.1 nM |  | COc1cnc2c(C)cc(C(=O)N3CCC4(CC3)CC(=O)c3nc(C(C)(C)C)sc3C4)cc2c1 [Example 19, 2-(tert-butyl)-1′-(3-methoxy-8-methylquinoline-6-carbonyl)-5H-spiro[benzo[d]thiazole-6,4′-piperidin]-4(7H)-one]
